These results are taken from patent US8114886B2, “Pyridylmethylsulfone derivative” (Daiichi Sankyo Company, Limited, priority 2005, dated 2012).

A value given as a limit tells only on which side of the number the result lay.

Test system in one data set: not given
Test: not given
Settings: not given
The melting point is the temperature of the solid-liquid transition. `Cc1cc(C(=O)O)ncc1C(c1cc(F)ccc1F)S(=O)(=O)c1ccc(Cl)cc1` (stereo not shown) [Example 3, 5-[[(4-Chlorophenyl)sulfonyl](2,5-difluorophenyl)methyl]-4-methylpyridine-2-carboxylic acid] returned a melting point of 208 to 209 °C.
Take `COc1ccc(S(=O)(=O)C(c2cnc(C(=O)O)cc2C)c2cc(F)ccc2F)cc1` (stereo not shown) [Example 42, 5-[(2,5-Difluorophenyl)[(4-methoxyphenyl)sulfonyl]methyl]-4-methylpyridine-2-carboxylic acid]: the melting point fell in the range of 194 to 195 °C.
On to `COc1ccc(S(=O)(=O)C(c2cnc(C(=O)O)cc2C)c2cc(F)ccc2F)cc1F` (stereo not shown) [Example 46, 5-[(2,5-Difluorophenyl)[(3-fluoro-4-methoxyphenyl)sulfonyl]methyl]-4-methylpyridine-2-carboxylic acid], for which the melting point was 196 to 197 °C.
`Cc1cc(C(=O)NCCC(=O)O)ncc1C(c1cc(F)ccc1F)S(=O)(=O)c1ccc(F)cc1` (stereo not drawn) [Example 81, N-[[5-[(2,5-difluorophenyl)[(4-fluorophenyl)sulfonyl]methyl]-4-methylpyridin-2-yl]carbonyl]-β-alanine] came in with a melting point of 223 to 226 °C.
Still for that read-out and setting: next, `CC(=O)OCNC(=O)c1cc(C)c(C(c2cc(F)ccc2F)S(=O)(=O)c2ccc(F)cc2)cn1` (stereo not shown) [Example 86, [[[5-[(2,5-Difluorophenyl)(4-fluorophenylsulfonyl)methyl]-4-methylpyridin-2-yl]carbonyl]amino]methyl acetate]: 111 to 113 °C; `Cc1cc(C(=O)N2CC(O)C2)ncc1C(c1cc(F)ccc1F)S(=O)(=O)c1ccc(F)cc1` (stereo not shown) [Example 88, 1-[[5-[(2,5-Difluorophenyl)[(4-fluorophenyl)sulfonyl]methyl]-4-methylpyridin-2-yl]carbonyl]azetidin-3-ol]: 219 to 221 °C.
As for `CCOC(=O)c1cc(C)c(C(c2cc(F)ccc2F)S(=O)(=O)c2ccc(F)cc2)cn1` (stereo not shown) [Example 91, Diethyl 5-[(2,5-difluorophenyl)[(4-fluorophenyl)sulfonyl]methyl]-4-methylpyridine-2-carboxylic acid], the melting point fell in the range of 151 to 153 °C.
`Cc1cc(C(=S)N(C)C)ncc1C(c1cc(F)ccc1F)S(=O)(=O)c1ccc(F)cc1` (stereo not shown) [Example 92, 5-[(2,5-Difluorophenyl)[(4-fluorophenyl)sulfonyl]methyl]-N,N,4-trimethylpyridine-2-carbothioamide] had a melting point of 161 to 164 °C.
Same read-out and setting: next, `Cc1cc(C(=O)NCCO)ncc1C(c1cc(F)ccc1F)S(=O)(=O)c1cc(F)cc(F)c1` (stereo not shown) [Example 100, 5-[(2,5-Difluorophenyl)[(3,5-difluorophenyl)sulfonyl]methyl]-N-(2-hydroxyethyl)-4-methylpyridine-2-carboxamide]: 82 to 84 °C.
Still for that read-out and setting: next, `CC(=O)NC(=O)c1cc(C)c(C(c2cc(F)ccc2F)S(=O)(=O)c2ccc(F)cc2)cn1` (stereo not shown) [Example 107, N-acetyl-5-[(2,5-difluorophenyl)[(4-fluorophenyl)sulfonyl]methyl]-4-methylpyridine-2-carboxamide]: 182 to 183 °C.

The next data set has as its system β-amyloid protein (Aβ) secreted by E35 cells (H4 cells with APP751 gene). Description: Screening system using E35 cells for inhibition of production/secretion of β-amyloid protein (sandwich ELISA of Aβ in culture medium). Conditions: Homo sapiens, 24 hours with compound, Aβ in culture supernatant by ELISA, read-out: Inhibitory Activity for Production of A(EC50). The data set is classed as cell-based, human. The protocol: The activity of the compound inhibiting β-amyloid protein production was measured on E35 cells prepared by introducing APP751 gene, a gene of a human wild type β-amyloid protein precursor protein, to human glioma cells (H4 cells), by quantifying the amount of β-amyloid protein (Aβ) secreted to the culture medium by means of a sandwich type Enzyme-Linked Immunosorbent Assay (ELISA) method.
That is, E35 cells inoculated on a 96-well plate were cultured in an incubator at 37° C. which was maintained at equilibrium with 5% carbon dioxide, using Dulbecco's Modified Eagle's Medium containing inactivated 10% fetal bovine serum as the culture medium. After 24 hours from the inoculation, a test compound dissolved in a DMSO solution was added. The DMSO solution of the test compound was prepared at a concentration of 2000 times of the final concentration, such that the DMSO concentration in the culture medium would be 0.05%. After culturing for another 24 hours, the culture supernatant was recovered, and this was added to a 96-well plate for ELISA onto which a monoclonal antibody against Aβ, 25-1, was solid-phased. The plate was incubated at 4° C. for 16 to 20 hours. The plate was washed with phosphate buffer solution (pH 7.4), and then a biotinylated monoclonal antibody against Aβ, MA32-40, was added thereto. The plate was left to stand at 4° C. for 2 hours. The plate was washed again with phosphate buffer solution, and then alkaline phosphatase-conjugated streptavidin was added to conjugate streptavidin to biotin. Subsequently, the plate was washed with phosphate buffer solution. To this, Blue Phos (Kirkegaard & Perry Laboratories, Inc.) was added. After incubating the plate for an appropriate time, the reaction was terminated with an acid, and the absorbance for each well was measured. The amount of Aβ contained in the culture supernatant was determined from a calibration curve which was produced separately, and the amount was compared with that of control cells to which the compound was not added. Thus, the concentration at which 50% of the Aβ production is inhibited (EC50 value) was calculated. In addition, the 25-1 antibody and MA32-40 antibody used in ELISA were mouse monoclonal antibodies derived from the hybridoma cell clone lines, which were each produced and selected according to a standard method using Aβ25-35 and Aβ1-8 as antigens, respectively, and which specifically recognize their respective antigens. […]
The scores indicate ++++ for the case where EC50 was 5 nM or less; +++ for the case where EC50 was 5 to 50 nM; ++ for the case where EC50 was 50 to 500 nM; and + for the case where EC50 was 500 nM to 5 μM.
Background: An ELISA detects its analyte on a solid surface through an enzyme-linked reagent.
What is called EC50 is the concentration that produces a half-maximal response. Regarding `Cc1cc(C(N)=O)ncc1C(c1cc(F)ccc1F)S(=O)(=O)c1ccc(F)cc1` (stereo not shown) [Example 15, 5-[(2,5-Difluorophenyl)[(4-fluorophenyl)sulfonyl]methyl]-4-methylpyridine-2-carboxamide], the EC50 was not above 5 nM.
On the same count and under the same terms, the result for `CNC(=O)c1cc(C)c(C(c2cc(F)ccc2F)[S+]([O-])c2ccc(F)cc2)cn1` (stereo not shown) [Example 21, 5-[(2,5-Difluorophenyl)[(4-fluorophenyl)sulfinyl]methyl]-N,4-dimethylpyridine-2-carboxamide] reads 5 to 50 nM; that for `Cc1cc(C(N)=O)ncc1C(c1cc(F)ccc1F)[S+]([O-])c1ccc(F)cc1` (stereo not shown) [Example 24, 5-[(2,5-Difluorophenyl) [(4-fluorophenyl)sulfinyl]methyl]-4-methylpyridine-2-carboxamide], 5 to 50 nM; that for `Cc1cc(C(=O)N(C)C)ncc1C(c1cc(F)ccc1F)S(=O)(=O)c1ccc(C(F)(F)F)nc1` (stereo not shown) [Example 28A, 5-[(2,5-Difluorophenyl) [[6-(trifluoromethyl)pyridin-3-yl]sulfonyl]methyl]-N,N,4-trimethylpyridine-2-carboxamide], 500 to 5000 nM.
In the case of `Cc1cc(C(=O)N(C)C)ncc1C(c1cc(F)ccc1F)[S+]([O-])c1ccc(C(F)(F)F)nc1` (stereo not shown) [Example 28B, 5-[(2,5-difluorophenyl)[[6-(trifluoromethyl)pyridin-3-yl]sulfinyl]methyl]-N,N,4-trimethylpyridine-2-carboxamide], the EC50 lay within 500 to 5000 nM.
Same read-out and setting: the result for `Cc1cc(C(=O)NCCO)ncc1C(c1cc(F)ccc1F)S(=O)(=O)c1ccc(C(F)(F)F)nc1` (stereo not shown) [Example 30, 5-[(2,5-Difluorophenyl) [[6-(trifluoromethyl)pyridin-3-yl]sulfonyl]methyl]-N-(2-hydroxyethyl)-4-methylpyridine-2-carboxamide] reads not above 5 nM.
Turning to `Cc1cc(C(N)=O)ncc1C(c1cc(F)ccc1F)S(=O)(=O)c1ccc(C(F)(F)F)nc1` (stereo not shown) [Example 32, 5-[(2,5-Difluorophenyl)[[6-(trifluoromethyl)pyridin-3-yl]sulfonyl]methyl]-4-methylpyridine-2-carboxamide], the EC50 is 5 to 50 nM.
The same measure, in the same setting: the result for `Cc1cc(C(=O)N(C)C)ncc1C(c1c(F)ccc(F)c1F)S(=O)(=O)c1ccc(F)cc1` (stereo not shown) [Example 36A, 5-[[(4-Fluorophenyl)sulfonyl](2,3,6-trifluorophenyl)methyl]-N,N,4-trimethylpyridine-2-carboxamide] reads 5 to 50 nM; that for `Cc1cc(C(=O)N(C)C)ncc1C(c1c(F)ccc(F)c1F)[S+]([O-])c1ccc(F)cc1` (stereo not shown) [Example 36B, 5-[[(4-fluorophenyl)sulfinyl](2,3,6-trifluorophenyl)methyl]-N,N,4-trimethylpyridine-2-carboxamide], 500 to 5000 nM.
The same measure, in the same setting: the result for `Cc1cc(C(N)=O)ncc1C(c1c(F)ccc(F)c1F)[S+]([O-])c1ccc(F)cc1` (stereo not shown) [Example 38, 5-[[(4-Fluorophenyl)sulfinyl](2,3,6-trifluorophenyl)methyl]-4-methylpyridine-2-carboxamide] reads 5 to 50 nM; that for `Cc1cc(C(N)=O)ncc1C(c1c(F)ccc(F)c1F)S(=O)(=O)c1ccc(F)cc1` (stereo not shown) [Example 39, 5-[[(4-Fluorophenyl)sulfonyl](2,3,6-trifluorophenyl)methyl]-4-methylpyridine-2-carboxamide], not above 5 nM; that for `Cc1cc(C(=O)NCCO)ncc1C(c1cc(F)ccc1F)S(=O)(=O)c1ccc(C(F)(F)F)cn1` (stereo not shown) [Example 55, 5-[(2,5-Difluorophenyl)[[5-(trifluoromethyl)pyridin-2-yl]sulfonyl]methyl]-N-(2-hydroxyethyl)-4-methylpyridine-2-carboxamide], 50 to 500 nM.
Same read-out and setting: the result for `Cc1cc(C(=O)NCCO)ncc1C(c1cc(F)ccc1F)S(=O)(=O)c1ccccc1` (stereo not shown) [Example 59, 5-[(2,5-Difluorophenyl)(phenylsulfonyl)methyl]-N-(2-hydroxyethyl)-4-methylpyridine-2-carboxamide] reads 5 to 50 nM.
For `Cc1ccc(S(=O)(=O)C(c2cnc(C(=O)NCCO)cc2C)c2cc(F)ccc2F)cc1` (stereo not shown) [Example 63, 5-[(2,5-Difluorophenyl)[(4-methylphenyl)sulfonyl]methyl]-N-(2-hydroxyethyl)-4-methylpyridine-2-carboxamide], the EC50 is not above 5 nM.
For the compound `Cc1cc(S(=O)(=O)C(c2cnc(C(=O)NCCO)cc2C)c2cc(F)ccc2F)ccc1Cl` (stereo not shown) [Example 67, 5-[[(4-Chloro-3-methylphenyl)sulfonyl](2,5-difluorophenyl)methyl]-N-(2-hydroxyethyl)-4-methylpyridine-2-carboxamide], the EC50 was not above 5 nM.
Regarding `Cc1cc(S(=O)(=O)C(c2cnc(C(=O)NCCO)cc2C)c2cc(F)ccc2F)ccc1F` (stereo not shown) [Example 71, 5-[(2,5-Difluorophenyl)[(4-fluoro-3-methylphenyl)sulfonyl]methyl]-N-(2-hydroxyethyl)-4-methylpyridine-2-carboxamide], the EC50 was 5 to 50 nM.
Same read-out and setting: next, `CC(=O)NCCNC(=O)c1cc(C)c(C(c2cc(F)ccc2F)S(=O)(=O)c2ccc(F)cc2)cn1` (stereo not shown) [Example 83, N-[2-(acetylamino)ethyl]-5-[(2,5-difluorophenyl)[(4-fluorophenyl)sulfonyl]methyl]-4-methylpyridine-2-carboxamide]: not above 5 nM; `Cc1cc(C(N)=O)ncc1C(c1c(F)ccc(F)c1F)S(=O)(=O)c1ccccc1` (stereo not shown) [Example 105, 4-Methyl-5-[(phenylsulfonyl)(2,3,6-trifluorophenyl)methyl]pyridine-2-carboxamide]: not above 5 nM.
